Results taken from patent US20120064514A1, “HIV-1-C […]” (Virco BVBA, priority 2009, published 2012).
“Also recorded” adds a separate entry of the source.

What was measured:
[1] = system: HIV-1-C recombinant virus stocks (pGEM-HIV-1-C-Δgprt-BstEII backbone); assay: Antiviral drug susceptibility testing of recombinant virus stocks, subtype C GPRT amplicon in HIV-1 subtype C backbone, MT4-eGFP cells; format: cell-based; conditions: for effect of RAM M184V in RT on FC: subtype C backbone, Clone 3 of Sample 3, FC with vs without 184V, FIG. 4; for ratio FCsubtype B/FCsubtype C (fold change in IC50 vs wild-type): same subtype C GPRT amplicons in subtype B vs subtype C backbone, FIG. 3-E, ratio significantly different from 1 (p<0.05) for the listed drugs
Description: (§1) An HIV subtype C backbone was designed in silico. The complete genome (12 721 bp) was divided into 4 fragments which were chemically synthesized and subsequently joined together by traditional subcloning. Gag-protease-reverse-transcriptase (GPRT) fragments from 8 patient samples infected with subtype C HIV-1 were RT-PCR amplified. The 1.7 kb PCR fragment was cloned into the HIV-1-C backbone (deleted for GPRT) using In-Fusion reagents. Full-genome clones (N ranging from 1 to 5 per patient sample) were transfected in MT4-eGFP cells where cyto-pathogenic effect (CPE), p24 and Viral Load (VL) were monitored. The resulting HIV-1-C recombinant virus stocks (RVSs) were added to MT4-eGFP cells in the presence of serial dilutions of antiretroviral drugs (PI, NNRTI, N(t)RTI) to determine the fold-change in IC50 compared to the IC50 of wild-type HIV-1 virus. Additionally, viral RNA was extracted from the HIV-1-C RVSs and submitted to an RT-PCR. The resulting GPRT amplicons were recombined into a subtype B backbone and phenotyped as described above, allowing the comparison of GPRT resistance profiles in the two backbones.
(§2) 5. Antiviral Drug Susceptibility Testing of Virus Stocks Generated with the pGEM-HIV-1-C-Δgprt-BstEII vs. the pGEM-HXB2-Δgprt-BstEII Backbone but Carrying Identical GPRT Fragments.
(§3) Fold-change values were calculated by dividing the IC50 values of the virus stocks harboring Resistance Associated Mutations (RAMs) by the IC50 values of the corresponding backbone with wild-type amplicon.

[2] = system: recombinant virus stocks with subtype C GPRT in pGEM-HXB2-Δgprt-BstEII (subtype B) backbone; assay: Antiviral drug susceptibility testing of recombinant virus stocks, subtype C GPRT amplicon in HIV-1 subtype B backbone, MT4-eGFP cells; format: cell-based; conditions: Clone 3 of Sample 3, FC with vs without 184V, FIG. 4
Description: as §1
In contrast to the In-Fusion strategy for the subtype C backbone, a homologous recombination event strategy was used for the subtype B backbone to generate infectious virus. Here the BstEII-linearized pGEM-HXB2Δgprt-BstEII backbone was co-transfected with the 1.8 kb GPRT fragment in an MT4 cell line, resulting in a full-genome infectious virus.
as §2, §3

SMILES | effect of RAM M184V in RT on FC [1] | effect of RAM M184V in RT on FC [2] | ratio FCsubtype B/FCsubtype C (fold change in IC50 vs wild-type) [1]
Nc1nc(NC2CC2)c2ncn([C@H]3C=C[C@@H](CO)C3)c2n1 [ABC] | not significantly affected | not significantly affected | 
Cc1cn([C@H]2C[C@H](N=[N+]=[N-])[C@@H](CO)O2)c(=O)[nH]c1=O [AZT] | re-sensitizing effects; also recorded: decreases the FC | re-sensitizing effects; also recorded: decreases the FC | 
Cc1cc(C#N)cc(C)c1Oc1nc(Nc2ccc(C#N)cc2)nc(N)c1Br [ETR, etravirine] |  |  | 0.67
Nc1nc(=O)n([C@@H]2CS[C@H](CO)O2)cc1F [FTC, emtricitabine] | increase in FC | increase in FC | 0.50
CC(C)OC(=O)OCOP(=O)(CO[C@H](C)Cn1cnc2c(N)ncnc21)OCOC(=O)OC(C)C.O=C(O)/C=C/C(=O)O [TDF] | decreases the FC | decreases the FC | 
Cc1cn([C@H]2C=C[C@@H](CO)O2)c(=O)[nH]c1=O [d4T] | decreases the FC | decreases the FC | 
CC(C)CN(C[C@@H](O)[C@H](Cc1ccccc1)NC(=O)O[C@H]1CO[C@H]2OCC[C@H]21)S(=O)(=O)c1ccc(N)cc1 [darunavir] |  |  | 1.78
O=c1[nH]cnc2c1ncn2[C@H]1CC[C@@H](CO)O1 [ddI, didanosine] | not significantly affected | not significantly affected | 
Cc1cccc(C)c1OCC(=O)N[C@@H](Cc1ccccc1)[C@@H](O)C[C@H](Cc1ccccc1)NC(=O)[C@H](C(C)C)N1CCCNC1=O [lopinavir] |  |  | 1.86
Cc1ccnc2c1NC(=O)c1cccnc1N2C1CC1 [nevirapine] |  |  | 1.61
